Calls of active or inactive are those of the source. The rule behind the calls is not given here.

Series [1] is described as follows: Nephrotoxicity in male Wistar rat assessed as effect on blood urea nitrogen level at 20 mg/kg, po administered for 3 days. The series is classed as toxicity, organism-based. Particulars: in vivo, 72 h, time 3 day.
Series [2] can be described thus: Toxicity in male Wistar rat assessed as gastrointestinal damage by measuring level-2 ulcers with 1 to 3 mm area at 50 mg/kg administered by gavage and measured after 6 hrs. The series is classed as organism-based. The settings on record: in vivo, po.
Series [3] concerns Rattus norvegicus. Put plainly: Immunomodulatory activity in Freund's complete adjuvant induced Lewis rat model of arthritis assessed as reduction in IL-17 level in serum at 20 mg/kg, po administered every 24 to 48 hrs for 28 days post immunization starting from day 8 post immunization by ELISA. The series is classed as functional, organism-based. Particulars: time 21.0 day. (An ELISA detects its analyte on a solid surface through an enzyme-linked reagent.)

Series [4] relates to RAW264.7. Put plainly: Antiinflammatory activity in LPS-induced mouse RAW264.7 cells assessed as inhibition of NO production at 10 uM pretreated for 1 hr followed by LPS stimulation and measured over 48 hrs by griess reagent based assay. It counts as functional, cell-based. Particulars: time > 49.0 hrs. On the technique in general: Griess reagent forms a coloured azo dye with nitrite.

The subject of series [5] is Rattus norvegicus. Description: Antiarthritic activity in Freund's complete adjuvant induced Lewis rat model of arthritis assessed as reduction in joint tissue damage by measuring reduction in inflammatory cell infiltration at 20 mg/kg, po administered every 24 hrs for 28 days post immunization starting from day 8 post immunization by H and E staining based analysis. The series is classed as functional, organism-based. Particulars: time 21.0 day.

Series [6] concerns Rattus norvegicus. Put plainly: Antiarthritic activity in Freund's complete adjuvant induced Lewis rat model of arthritis assessed as reduction in joint deformities at 20 mg/kg, po administered every 24 to 48 hrs for 28 days post immunization starting from day 8 post immunization. The settings on record: time 21.0 day. It counts as functional, organism-based.
Series [7] deals with Rattus norvegicus. Description: Antiarthritic activity in Freund's complete adjuvant induced Lewis rat model of arthritis assessed as reduction in TNFalpha level in serum at 20 mg/kg, po administered every 24 to 48 hrs for 28 days post immunization starting from day 8 post immunization by ELISA. The series is classed as functional, organism-based. Particulars: time 21.0 day.

A short description of series [8]: Toxicity in male Wistar rat assessed as gastrointestinal damage by measuring level-1 ulcers with <1 mm area at 50 mg/kg administered by gavage and measured after 6 hrs. The settings on record: in vivo, po. It counts as organism-based.
For series [9], the system named is Rattus norvegicus. Put plainly: Antiarthritic activity in Freund's complete adjuvant induced Lewis rat model of arthritis assessed as reduction in arthritis score at 20 mg/kg, po administered every 24 to 48 hrs for 28 days post immunization starting from day 8 post immunization. The series is classed as functional, organism-based. The settings on record: time 21.0 day.

Series [10] has as its system Rattus norvegicus. Put plainly: Antiarthritic activity in Freund's complete adjuvant induced Lewis rat model of arthritis assessed as reduction in joint tissue damage by measuring reduction in cartilage degeneration at 20 mg/kg, po administered every 24 hrs for 28 days post immunization starting from day 8 post immunization by H and E staining based analysis. Particulars: time 21.0 day. It counts as functional, organism-based.

Series [11] concerns RAW264.7. Put plainly: Cytotoxicity against LPS-induced mouse RAW264.7 cells assessed as reduction in cell viability at 30 uM pretreated for 1 hr followed by LPS addition and measured after 24 hrs by MTT assay. The series is classed as toxicity, cell-based. Particulars: raw264.7, 25 h. In general terms: Tetrazolium dyes change colour on reduction, which living cells bring about.

Series [12] concerns Rattus norvegicus. Description: Immunomodulatory activity in Freund's complete adjuvant induced Lewis rat model of arthritis assessed as increase in anti-IL-10 antibody expression in knee joint slices at 20 mg/kg, po administered every 24 to 48 hrs for 28 days post immunization starting from day 8 post immunization by immunohistochemistry analysis. The series is classed as functional, organism-based. The settings on record: time 21.0 day.

The nature of series [13]: Toxicity in male Wistar rat assessed as gastrointestinal damage by measuring level-3 ulcers with >3 mm area at 100 mg/kg administered by gavage and measured after 6 hrs. The series is classed as organism-based. The settings on record: in vivo, po.
Series [14] deals with T1, Prostaglandin G/H synthase 2 (Mus musculus) (UniProt Q05769).
T1 sequence (whole entry): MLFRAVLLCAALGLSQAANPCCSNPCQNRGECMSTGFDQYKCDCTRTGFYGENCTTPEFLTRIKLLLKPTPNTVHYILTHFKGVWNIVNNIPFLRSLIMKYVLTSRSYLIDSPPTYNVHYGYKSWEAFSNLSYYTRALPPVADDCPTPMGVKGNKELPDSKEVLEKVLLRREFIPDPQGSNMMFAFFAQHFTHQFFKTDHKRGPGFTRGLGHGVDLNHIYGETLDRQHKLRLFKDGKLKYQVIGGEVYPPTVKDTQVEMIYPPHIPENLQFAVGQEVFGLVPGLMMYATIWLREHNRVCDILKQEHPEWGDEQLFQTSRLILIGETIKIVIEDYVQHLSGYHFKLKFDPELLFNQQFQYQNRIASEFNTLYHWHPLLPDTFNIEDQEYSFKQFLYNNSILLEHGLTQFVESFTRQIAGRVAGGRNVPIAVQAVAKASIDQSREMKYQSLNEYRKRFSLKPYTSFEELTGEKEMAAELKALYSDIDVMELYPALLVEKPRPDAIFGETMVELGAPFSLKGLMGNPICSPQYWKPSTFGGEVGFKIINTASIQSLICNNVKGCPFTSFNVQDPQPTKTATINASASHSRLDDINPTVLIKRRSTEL
Description: Binding affinity to COX-2 in LPS-induced mouse RAW264.7 cells assessed as thermal stability at 30 uM pretreated with LPS for 24 hrs followed by compound addition and measured after 2 hrs by CETSA. The series is classed as cell-based.

The subject of series [15] is Rattus norvegicus. Description: Immunomodulatory activity in Freund's complete adjuvant induced Lewis rat model of arthritis assessed as increase in CD4positive CD25positive Treg cells in spleen at 20 mg/kg, po administered every 24 hrs for 28 days post immunization starting from day 8 post immunization by flow cytometry analysis. It counts as functional, organism-based. Particulars: time 21.0 day.

In series [16] the test system is RAW264.7. Description: Antiinflammatory activity in LPS-induced mouse RAW264.7 cells assessed as inhibition of NO production pretreated for 1 hr followed by LPS stimulation and measured after 24 hrs by griess reagent based assay. The series is classed as functional, cell-based.
The subject of series [17] is Rattus norvegicus. Description: Antiarthritic activity in Freund's complete adjuvant induced Lewis rat model of arthritis assessed as reduction in PGE2 level in serum at 20 mg/kg, po administered every 24 to 48 hrs for 28 days post immunization starting from day 8 post immunization by ELISA. The series is classed as functional, organism-based. The settings on record: time 21.0 day.

Series [18] relates to RAW264.7. Description: Antiinflammatory activity in LPS-induced mouse RAW264.7 cells assessed as inhibition of PGE2 production at 10 uM pretreated for 1 hr followed by LPS stimulation and measured after 24 to 48 hrs by ELISA. It counts as functional, cell-based. Particulars: time 25-49 hrs.
The nature of series [19]: Hepatotoxicity in male Wistar rat assessed as effect on glutamic oxalacetic transaminase level at 20 mg/kg, po administered for 3 days. It counts as toxicity, organism-based. Particulars: in vivo, 72 h, time 3 day.
Series [20] is described as follows: Hepatotoxicity in male Wistar rat assessed as effect on glutamic pyruvic transaminase level at 20 mg/kg, po administered for 3 days. Particulars: in vivo, 72 h, time 3 day. The series is classed as toxicity, organism-based.
Series [21] relates to Rattus norvegicus. Description: Antiarthritic activity in Freund's complete adjuvant induced Lewis rat model of arthritis assessed as reduction in IL-17 protein expression at 20 mg/kg, po administered every 24 to 48 hrs for 28 days post immunization starting from day 8 post immunization by Western blot analysis. The series is classed as functional, organism-based. The settings on record: time 21.0 day.

The subject of series [22] is Rattus norvegicus. Description: Immunomodulatory activity in Freund's complete adjuvant induced Lewis rat model of arthritis assessed as decrease in anti-IL-17 antibody expression in knee joint slices at 20 mg/kg, po administered every 24 to 48 hrs for 28 days post immunization starting from day 8 post immunization by immunohistochemistry analysis. The settings on record: time 21.0 day. The series is classed as functional, organism-based.

`CCCCC/C=C\C/C=C\C/C=C\C/C=C\CC/C=C(/OC(=O)C(C)c1ccc(C(=O)c2ccccc2)cc1)C(F)(F)F` (configuration not stated): the Activity entry is “Non-Toxic” in [1]; 0% in [2]; 0% in series [8]; “Non-Toxic” in series [11]; 0% in series [13]; “Non-Toxic” in series [19]. For the same compound, the Activity result in [20] was “Non-Toxic”. For the same compound, the outcome in series [3], in [4], in [5], in [6], in series [7] and in series [9] was Active. For the same compound, the outcome in [10], in [12], in series [14], in series [15], in series [17] and in [18] was Active. For the same compound, the outcome in series [21] and in series [22] was Active. Also, in [16], the concentration for half-maximal inhibition (IC50) (usually the concentration that inhibits the measured activity by half) turned out to be 3.85 µM.
